Among the targets are MAP3K12 (human) (UniProt Q12852); MYLK3 (human) (UniProt Q32MK0); ERBB4 (human) (UniProt Q15303).
Experiment in all cases: KINOMEscan competition binding

Each structure is given as a SMILES string.

Chain of MAP3K12 (human) (Q12852 whole entry, looked up): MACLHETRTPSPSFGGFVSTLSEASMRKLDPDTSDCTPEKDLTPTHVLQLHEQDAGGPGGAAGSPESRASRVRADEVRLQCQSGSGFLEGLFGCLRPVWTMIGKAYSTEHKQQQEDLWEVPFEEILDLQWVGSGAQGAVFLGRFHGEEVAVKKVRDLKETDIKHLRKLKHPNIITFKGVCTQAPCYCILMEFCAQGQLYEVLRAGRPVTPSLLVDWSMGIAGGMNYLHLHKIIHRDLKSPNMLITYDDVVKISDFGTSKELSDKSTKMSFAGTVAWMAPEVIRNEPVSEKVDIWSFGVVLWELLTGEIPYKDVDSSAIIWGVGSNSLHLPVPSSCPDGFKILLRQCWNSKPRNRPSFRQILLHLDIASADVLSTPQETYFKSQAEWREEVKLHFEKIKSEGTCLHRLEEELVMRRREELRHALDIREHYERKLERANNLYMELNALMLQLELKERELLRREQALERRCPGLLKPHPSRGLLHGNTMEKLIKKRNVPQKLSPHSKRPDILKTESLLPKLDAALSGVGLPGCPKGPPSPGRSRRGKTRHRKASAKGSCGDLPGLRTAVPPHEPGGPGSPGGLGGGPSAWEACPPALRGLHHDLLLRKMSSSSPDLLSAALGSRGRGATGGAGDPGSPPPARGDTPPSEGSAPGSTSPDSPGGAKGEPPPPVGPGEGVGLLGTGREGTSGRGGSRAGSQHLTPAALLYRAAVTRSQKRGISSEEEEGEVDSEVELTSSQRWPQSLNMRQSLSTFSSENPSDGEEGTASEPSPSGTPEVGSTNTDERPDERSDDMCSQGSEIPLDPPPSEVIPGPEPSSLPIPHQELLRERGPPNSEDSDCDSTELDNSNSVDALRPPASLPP
Chain of MYLK3 (human) (Q32MK0 whole entry, looked up): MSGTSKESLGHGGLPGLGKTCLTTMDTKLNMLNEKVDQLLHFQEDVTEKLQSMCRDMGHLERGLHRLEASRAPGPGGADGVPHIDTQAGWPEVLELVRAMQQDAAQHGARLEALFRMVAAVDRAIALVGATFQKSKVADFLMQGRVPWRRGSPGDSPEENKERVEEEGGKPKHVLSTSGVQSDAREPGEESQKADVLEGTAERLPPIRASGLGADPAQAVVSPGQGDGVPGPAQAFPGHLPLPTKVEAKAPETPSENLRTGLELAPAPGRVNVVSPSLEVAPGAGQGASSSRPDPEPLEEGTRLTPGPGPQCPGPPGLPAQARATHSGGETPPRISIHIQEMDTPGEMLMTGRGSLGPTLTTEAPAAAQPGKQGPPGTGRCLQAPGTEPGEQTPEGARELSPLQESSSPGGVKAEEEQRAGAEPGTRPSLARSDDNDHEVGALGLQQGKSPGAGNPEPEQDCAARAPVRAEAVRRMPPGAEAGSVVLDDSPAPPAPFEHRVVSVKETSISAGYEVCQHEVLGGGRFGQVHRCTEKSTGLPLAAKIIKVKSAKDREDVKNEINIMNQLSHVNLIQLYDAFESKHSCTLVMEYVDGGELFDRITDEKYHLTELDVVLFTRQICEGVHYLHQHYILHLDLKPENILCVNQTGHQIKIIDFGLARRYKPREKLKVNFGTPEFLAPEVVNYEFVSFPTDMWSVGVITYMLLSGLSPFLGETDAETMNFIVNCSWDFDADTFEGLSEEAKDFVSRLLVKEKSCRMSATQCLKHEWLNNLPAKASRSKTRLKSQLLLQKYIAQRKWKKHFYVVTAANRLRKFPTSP
Chain of ERBB4 (human) (Q15303 whole entry, looked up): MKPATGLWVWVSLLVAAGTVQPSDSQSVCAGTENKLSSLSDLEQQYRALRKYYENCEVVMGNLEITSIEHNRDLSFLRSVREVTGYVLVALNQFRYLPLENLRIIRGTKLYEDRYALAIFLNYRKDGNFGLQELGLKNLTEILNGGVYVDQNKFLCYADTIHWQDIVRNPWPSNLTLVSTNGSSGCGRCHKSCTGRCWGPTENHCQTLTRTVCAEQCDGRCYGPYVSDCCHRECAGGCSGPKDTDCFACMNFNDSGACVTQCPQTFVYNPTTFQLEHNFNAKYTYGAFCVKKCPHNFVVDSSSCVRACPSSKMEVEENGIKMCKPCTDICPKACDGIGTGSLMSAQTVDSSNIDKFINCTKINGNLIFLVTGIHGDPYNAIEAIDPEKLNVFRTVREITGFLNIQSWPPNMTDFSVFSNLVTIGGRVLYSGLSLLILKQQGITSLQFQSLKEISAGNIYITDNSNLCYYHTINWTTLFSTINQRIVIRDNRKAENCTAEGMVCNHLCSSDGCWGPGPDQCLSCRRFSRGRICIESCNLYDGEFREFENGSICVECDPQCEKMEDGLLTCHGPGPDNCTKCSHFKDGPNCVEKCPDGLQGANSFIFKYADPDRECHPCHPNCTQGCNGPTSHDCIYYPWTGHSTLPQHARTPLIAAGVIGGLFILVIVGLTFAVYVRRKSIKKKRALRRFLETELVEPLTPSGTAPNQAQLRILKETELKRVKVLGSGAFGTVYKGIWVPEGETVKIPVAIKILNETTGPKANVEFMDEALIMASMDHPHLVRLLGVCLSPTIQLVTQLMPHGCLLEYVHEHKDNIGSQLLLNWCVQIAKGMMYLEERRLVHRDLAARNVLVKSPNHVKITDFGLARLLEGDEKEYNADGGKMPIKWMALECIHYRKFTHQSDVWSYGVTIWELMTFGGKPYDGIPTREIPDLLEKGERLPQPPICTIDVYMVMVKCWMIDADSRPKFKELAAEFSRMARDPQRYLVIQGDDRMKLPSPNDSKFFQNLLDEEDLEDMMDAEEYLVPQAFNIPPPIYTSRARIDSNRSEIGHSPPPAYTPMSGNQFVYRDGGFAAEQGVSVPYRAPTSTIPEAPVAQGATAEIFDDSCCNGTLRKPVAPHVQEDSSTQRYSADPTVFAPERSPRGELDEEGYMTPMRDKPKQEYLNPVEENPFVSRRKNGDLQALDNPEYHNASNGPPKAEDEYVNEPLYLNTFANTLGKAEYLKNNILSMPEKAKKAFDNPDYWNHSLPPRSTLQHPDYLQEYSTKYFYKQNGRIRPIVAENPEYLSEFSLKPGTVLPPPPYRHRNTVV

As to `NC(=O)c1ccc(-c2nc(-c3ccccn3)c(-c3ccc4c(c3)OCO4)[nH]2)cc1`, the Kd at MAP3K12 (human), at MYLK3 (human) and at ERBB4 (human) was over 10 µM throughout.
Molecule `CCOc1cc2ncc(C#N)c(Nc3ccc(F)c(Cl)c3)c2cc1NC(=O)/C=C/CN(C)C` yielded a Kd at MYLK3 (human) of over 10 µM.
Regarding `COCC(=O)NC/C=C/c1ccc2ncnc(Nc3ccc(Oc4ccc(C)nc4)c(C)c3)c2c1`, the Kd on MAP3K12 (human) and on MYLK3 (human) was over 10 µM each time.
For `Oc1ccc(-c2nc(-c3ccc(F)cc3)c(-c3ccncc3)[nH]2)cc1`, the Kd on MAP3K12 (human), on MYLK3 (human) and at ERBB4 (human) was over 10 µM each time.
Consider `Nc1nc(Nc2ccc(S(N)(=O)=O)cc2)nn1C(=O)c1c(F)cccc1F`, for which the Kd on MYLK3 (human) and on ERBB4 (human) was over 10 µM in each case.

One may read the Kd as the free concentration of one partner at which half of the binding sites on the other are occupied at equilibrium, for simple one-to-one binding.

The record behind these values is the kinase profiling compilation of Christmann-Franck et al. (2016).
